In PubChem BioAssay (NCI):
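Five compound concentrations were applied to cells in 96-well plates for 48 hours; endpoints were derived by simple linear interpolation of the resulting dose-response curve. Abbreviation: GI50, concentration required for 50% inhibition of growth. TGI: total growth inhibition.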

How the values were obtained:
Assay in all cases: NCI-60 cell line screen, 48 h
[1] = system: SF-539 CNS
[2] = system: SK-MEL-28 melanoma
[3] = system: A549 NSCLC
[4] = system: HOP-62 NSCLC
[5] = system: MALME-3M melanoma
[6] = system: OVCAR-5 ovarian
[7] = system: OVCAR-3 ovarian
[8] = system: EKVX NSCLC
[9] = system: COLO 205 colon
[10] = system: OVCAR-4 ovarian

SMILES | GI50 [1] [µM] | TGI [1] [µM] | GI50 [2] [µM] | TGI [2] [µM] | GI50 [3] [µM] | GI50 [4] [µM] | TGI [4] [µM] | GI50 [5] [µM] | TGI [5] [µM] | GI50 [6] [µM] | TGI [6] [µM] | GI50 [7] [µM] | TGI [7] [µM] | GI50 [8] [µM] | TGI [8] [µM] | GI50 [9] [µM] | TGI [9] [µM] | GI50 [10] [µM] | TGI [10] [µM] | TGI [3] [µM]
Clc1ccc(-c2cn(-c3ccccc3)c(-c3ccccc3)n2)c(Cl)c1 | 2.2 | > 50 | 4.86 | > 41.2 | 1.77 | 1.36 | 5.02 | 1.32 | 6.92 | > 16 | > 45.1 | 0.861 | 1.73 | > 18.5 | > 50 | 1.14 | 3.03 | 0.884 | 1.81 | 
COc1ccc(S(=O)(=O)N/N=C(\C)CN2C(=O)c3ccccc3C2=O)cc1 |  | > 100 |  | > 100 |  |  | > 100 |  | > 100 |  | > 100 |  | > 100 |  | > 100 |  | > 100 |  | > 100 | > 100
CCN1CCCCC(=N\O)/C(=N/O)CCCC1 |  | > 100 |  | > 100 |  |  | > 100 |  | > 100 |  | > 100 |  | > 100 |  | > 100 |  | > 100 |  | > 100 | > 100
COc1cccc2c1C(=O)c1c(O)c3c(c(O)c1C2=O)C[C@@](O)(/C(C)=N\O)C[C@@H]3OC1CC(N)C(O)C(C)O1 (stereo partly specified) |  | 3.8 |  | 3.98 |  |  | 6.46 |  | 2.41 |  | 12.2 |  | 8.58 |  | 19.5 |  | 3.56 |  | 17.3 | 6.22
CCCCc1nc2cc(/C=C/C(=O)NO)ccc2n1CCN(CC)CC | 0.335 | 18.5 | 0.254 | 1.58 | 0.318 | 0.322 | 11.6 | 0.153 | 22.2 | 0.13 | 1.4 | 0.363 | 1.83 | 0.387 | > 100 | 0.138 | 0.298 | 0.345 | > 54.2 | 2.4
CN(Cc1ccccc1)C1(N(C)Cc2ccccc2)CC1 |  | > 100 |  | > 100 |  |  | > 100 |  | > 100 |  | > 100 |  | > 100 |  | > 100 |  | > 100 |  | > 100 | > 100
CC(C)(CCC(C)(C)c1ccccc1)c1ccccc1 |  | 43.6 |  | 42.7 |  |  | 35.4 |  | 30 |  | 33.5 |  | 31 |  | 32.4 |  | 33.5 |  | 39.7 | > 100
Cc1nn(C)c(=S)n(C)c1=O |  | 21.9 |  | > 100 |  |  | 11.4 |  | 37.2 |  | 53.8 |  | > 100 |  | 44.9 |  | 15.4 |  | > 100 | 23.8
COc1ccc(-c2c(C#N)c(N)nc3c2CCCc2ccc(F)cc2-3)cc1OC | < 0.01 | 0.0213 | 1.03 | > 38 | 0.174 | 0.131 | 29.7 | < 0.01 |  | 8.97 | > 100 | < 0.01 |  | 0.0861 |  | 4.89 | > 38.1 | 1.28 | > 29.9 | > 54
NCC(=O)CCC(=O)O | > 100 | > 100 | > 100 | > 100 | > 100 | > 100 | > 100 | > 100 | > 100 | > 100 | > 100 | > 100 | > 100 | > 100 | > 100 | > 100 | > 100 | > 100 | > 100 | > 100
Cc1ccc(-n2c(-c3ccc(Cl)cc3)cs/c2=N\NC(=O)COc2n[nH]c(=O)c3ccccc23)cc1 | 19.6 | 71.8 | > 100 | > 100 | > 100 | 51.8 | > 100 | 31.9 | > 100 | > 100 | > 100 | > 100 | > 100 | 59.6 | > 100 | > 100 | > 100 | > 100 | > 100 | > 100
O=C(CC(=O)c1ccccc1NC1=Cc2ccccc2C(=O)C1=O)C(=O)NC1=C(Cl)C(=O)c2ccccc2C1=O |  | 9.11 |  | 3.71 |  |  | 17.9 |  | 2.49 |  | 12.6 |  | 7.05 |  | 22.4 |  | 31 |  | 15.1 | 16.5
O=C1c2ccccc2C2(O)Oc3cccc(O)c3C12O (stereo unspecified) |  | > 100 |  | > 100 |  |  | > 100 |  | > 100 |  | > 100 |  | > 100 |  | > 100 |  | > 100 |  | > 100 | > 100
COc1ccc(/C=C/C(C(=O)O)C(=O)O)cc1 |  | > 100 |  | > 100 |  |  | > 100 |  | > 100 |  | > 100 |  | > 100 |  | > 100 |  | > 100 |  | > 100 | > 100
CC1=N/C(=C\c2ccc([N+](=O)[O-])cc2)C(=O)O1 |  | > 100 |  | > 100 |  |  | > 100 |  | > 100 |  | > 100 |  | > 100 |  | > 100 |  | > 100 |  | > 100 | > 100
